Assay results from US9815849B2, “Compositions and methods for treating leukemia” (Dana-Farber Cancer Institute, Inc., priority 2010, dated 2017).
Entries after “also recorded” stand apart in the source; their conditions may differ.

Key:
primary AMLs = assay: cells; details: Homo sapiens, read-out: IC50, growth-suppressive activity
Method: Primary leukemic cells were obtained from peripheral blood (PB) or bone marrow (BM) aspirate samples of 12 (untreated) patients with AML at diagnosis (n=10) or at relapse (n=2). […] Mononuclear cells (MNC) were prepared using Ficoll and stored in liquid nitrogen until used. […] HL60 and MOLM13 cell lines were included as controls (German Collection of Microorganisms and Cell Cultures, DSMZ, Braunschweig, Germany).
Filters were air-dried, and the bound radioactivity was measured in a β-counter (Top-Count NXT, Packard Bioscience). All experiments were performed in triplicates.

[1] = tested on: MLL-AF9/Nras^G12D leukemia; assay: MLL-AF9/NrasG12D leukemia transplant model, JQ1 treatment; type: in vivo, mice
Excerpt: FIG. 12A includes bioluminescent images of mice administered doxycycline upon disease onset, i.e., six days post-transplant. Day zero is the first day of doxycycline administration. FIG. 12B includes a graph showing the quantification of bioluminescent imaging responses following doxycycline administration. Shown are mean values of four replicate mice. FIG. 12C includes a graph showing Kaplan-Meier survival curves of recipient mice transplanted with the indicated TRMPV-shRNA leukemia cell line. The period of doxycycline administration is indicated by an arrow. Statistical significance relative to shRNAs that target Renilla luciferase (shRen) was calculated using a Log-rank test; *p=0.0001, **p<0.0001. FIG. 12D includes flow cytometry of donor-derived (CD45.2-positive) bone marrow cells in terminally diseased doxycycline-administered mice. Gate shown includes dsRed-positive/shRNA-positive cells. FIG. 12E includes a graph showing the quantification of dsRed-positive/shRNA-positive percentage in CD45.2-positive terminal leukemia burden. […] Shown are mean values of 6 DMSO- and 7 JQ1-treated mice. p-values were calculated using a two-tailed Student's paired t-test. […] Statistical significance was calculated using a Log-rank test. […] Shown are mean values of 6 DMSO- and 7 JQ1-treated mice. p-values were calculated using a two-tailed Student's paired t-test. […]
Mice were transplanted with 1 million leukemia cells, followed by treatment initiation on day 4 (when disease becomes visible by imaging). FIG. 13B includes a graph showing quantitation of the bioluminescent images. […] Statistical significance was calculated using a Log-rank test. […] Statistical significance was calculated using a Log-rank test.
For whole body bioluminescent imaging mice were intraperitoneally injected with 50 mg/kg D-Luciferin (Goldbio, St. Louis, Mo.), and after 10 min. analyzed using an IVIS® Spectrum system (Caliper LifeSciences, Waltham, Mass.). Quantification was performed using Living Image software (Caliper LifeSciences) and standardized rectangular region of interests covering the mouse trunk and extremities. […]

[2] = Pharmacokinetic study of (+)-JQ1 in mice (plasma, LCMS-MS); type: in vivo
Method: FIG. 29A includes a table of pharmacokinetic data and measured parameters. […] Data represent mean measurements and error bars indicate the standard deviation, both from triplicate independent measurements. Plasma concentrations of drug above the biologically active concentration observed in vitro (100 nM; horizontal red line) are observed for more than 10 hours by extrapolation.

Myc [3] = assay: Myc levels in MEF or G1E cells; type: cell-based, mouse
Method: (§1) RNA was prepared using Trizol® reagent (Invitrogen, Carlsbad, Calif.). cDNA synthesis was performed using gScript™ cDNA SuperMix (Quanta Biosciences, Gaithersburg, Md., #101414-106). Quantitative PCR (qPCR) analysis was performed on an ABI™ 7900HT with Sybr green (ABI, Carlsbad, Calif., #4364344). All signals were quantified using the delta-Ct method. All signals were normalized to the levels of GAPDH.

Myc [4] = assay: Myc RT-qPCR and Western blot in leukemia cells; type: cell-based, mouse
Method: FIG. 20D includes a graph showing RT-qPCR results. […] FIG. 20E includes a graph showing ChIP-qPCR results. […] TSS=transcription start site. […] (n=3). […] Representative images taken at 40× objective are shown. All error bars shown represent s.e.m.
For Brd4 Western blots, 30 μg of whole cell lysate RIPA extract (25 mM Tris pH7.6, 150 mM NaCl, 1% NP-40, 1% Sodium deoxycholate, 0.1% SDS) was loaded into each lane. For Myc Western blots, cells were lysed directly in Laemmli buffer. About 50,000 cell equivalents were loaded in each lane. Protein extracts were resolved by SDS-PAGE electrophoresis and transferred to nitrocellulose for blotting.
as §1

Brd4 = Brd4 (Mus musculus, UniProt Q9ESU6); details: MLL-AF9/Nras^G12D leukemia cells
Method: ChIP assays were performed exactly as described (Filippakopoulos et al.). […] All results were quantified by qPCR performed using SYBR green (ABI) on an ABI 7900HT. Each IP signal was referenced to an input standard curve dilution series (IP/Input) to normalize for differences in starting cell number and for primer amplification efficiency.

[5] = tested on: primary MLL-rearranged pediatric leukemias; assay: Pediatric primary leukemia sample analysis (WST-1, 72 h); type: cell-based, human; details: 3/3 tested primary MLL-rearranged pediatric leukemias
Excerpt: Diagnostic bone marrow samples were collected under institutional review board-approved protocols from newly diagnosed children with acute leukemia. Informed consent was obtained in accordance with the Helsinki protocol. At the time of collection, primary leukemic cells were enriched by density centrifugation using Ficoll-Paque PLUS (GE Healthcare, Piscataway, N.J.) and subsequently stored in liquid nitrogen. Vials of cryopreserved cells were thawed, resuspended in media, and live leukemic cells were enriched by density centrifugation. Cells were maintained in supplemented media with 20% fetal bovine serum. All leukemia cell cultures were incubated at 37° C. in 5% CO2.
WST-1 assays were performed in triplicate.

[6] = tested on: MLL-AF9/Nras^G12D leukemia cells; assay: May-Grunwald/Giemsa cytospin morphology of leukemia cells; type: cell-based, mouse; details: 100 nM JQ1, 2 days
Method: 50,000 cells were resuspend in 100 μl FACS buffer (5% FBS, 0.05% NaN3 in PBS) cytospun onto glass slides using Shandon Cytospin 2 Centrifuge at 500 rpm for 5 min. May-Grunwald (Sigma-Aldrich, #019K4368) and Giemsa (Sigma-Aldrich, #010M4338) stainings were performed according to manufacturer's protocols. Images were collected using a Zeiss Observer Microscope with a 40× objective.

[7] = tested on: AML1-ETO9a/Nras^G12D/p53^−/− AML; assay: AML1-ETO9a/NrasG12D/p53-/- AML mouse model, JQ1 treatment; type: in vivo, mice; details: 50 mg/kg/d, treatment started after disease onset
Excerpt: FIG. 14A is a schematic showing the experimental strategy. p53^−/− HSPCs were cotransduced with AML1-ETO9a and Luciferase-IRES-NrasG12D constructs, followed by transplantation of cells into a sublethally irradiated recipient mouse. With high-penetrance, mice succumb to AML as has been described previously (Dick, J. E., Blood 2008; 112:4793-807). Splenic leukemia material derived from moribund mice was transplanted into secondary recipient animals. […] FIG. 14B includes bioluminescent images of leukemic mice at indicated timepoints. […] Shown are mean values of 8 mice in each treatment group, error bars represent s.e.m, p-values were calculated using a two-tailed Student's paired t-test.

[8] = tested on: mouse MLL-fusion leukemia cells; assay: Proliferation assay of mouse leukemia cells versus fibroblasts and G1E; type: cell-based; details: as compared to fibroblasts and G1E
Method: (§2) Proliferation assays were performed by counting the increase in viable cell number over seventy-two hours. Dead cells were excluded by incubating with propidium iodide (PI). Cell concentration measurements were performed on a Guava Easycyte (Millipore, Billerica, Mass.), gating only viable cells using forward/side scatter/PI-cells. Proliferation rate was calculated using the equation: ln(cell concentration72 h/cell concentration0 h)/72. Relative proliferation rate was calculated by normalizing to rate of DMSO-treated cells.

Hoxa7, Hoxa9, Meis1 = assay: RT-qPCR of direct MLL-AF9 target genes; type: cell-based, mouse; details: JQ1 treatment of leukemia cells
Excerpt: FIGS. 30A-30C show the broadly overlapping transcriptional effects elicited upon suppressing Brd4, Myb, and MLL-AF9 with downregulation of Myc upon suppressing any of the three factors. FIG. 30A includes GSEA plots evaluating transcriptional signatures downstream of MLL-AF9 and Myb. […] The 500 gene cutoff corresponds to a Log2 fold-change of −1.17 for Myb and −1.77 for MLL-AF9. FIG. 30B includes a heat map representation of Myc expression in the indicated microarray replicates. Log2 fold-change and adj.P.Val were calculated using Limma algorithm, implemented using Bioconductor. FIG. 30C includes a graph showing RT-qPCR results. […] Error bars represent s.e.m.
as §1

[9] = tested on: non-AML leukemia and solid tumor cell lines; assay: Proliferation assay of non-AML leukemia and solid tumor cell lines; type: cell-based, human; details: other tested non-AML leukemia and solid tumor cell lines
Method: as §2

[10] = Tolerability and normal hematopoiesis in healthy mice after 20 days of JQ1; type: in vivo, C57BL/6 mice
Excerpt: Peripheral blood was collected by submandibular bleeding and analyzed using a Hemavet 950 analyzer (Drew Scientific). Values represent average values of 3 replicate mice; error bars indicate s.e.m.
Representative images are shown.
FIG. 17B includes graphs showing the percentage of total bone marrow cells staining for the indicated antibodies. (n=3). Error bars indicate s.e.m.
Paraffin embedded sections were stained with hematoxylin & eosin (H&E). Photographs were taken on a Nikon Eclipse 80i microscope with a Nikon Digital Sight camera using NIS-Elements F2.30 software at a resolution of 2560×1920. Using Adobe Photoshop CS2, images were re-sized and set at a resolution of 300 pixels/inch, autocontrast was applied, and unsharp mask was used to improve image clarity.

AML cell lines = assay: cells; details: Homo sapiens, 72 h, read-out: IC50, growth-suppressive activity (proliferation rate)
Method: as §2

AML lines = assay: BrdU cell cycle analysis and apoptosis measurement in AML lines; type: cell-based; details: all tested AML lines
Method: BrdU incorporation assays were performed according to the manufacturer's protocol (BD, APC BrdU Flow Kit, #552598), where cells were pulsed with BrdU for 30 min. Cells were co-stained with 7-AAD or DAPI for DNA content measurement. For all conditional shRNA experiments, the analysis was gated on shRNA+/dsRed+ cell populations. Annexin V staining for apoptosis was performed according to manufacturer's protocol (BD Biosciences, APC Annexin V, #550475). In FIG. 4e, Annexin V gating was performed on live cells (FSC/SCC) and dsRed+/shRNA+ population, to ensure a clear readout of shRNA effects. […] All analyses were performed using Flowjo software.

[11] = daily injections of JQ1 50 mg/kg vs vehicle

Cc1sc2c(c1C)C(c1ccc(Cl)cc1)=NC(CC(=O)OC(C)(C)C)c1nnc(C)n1-2 (racemic) [JQ1, tert-Butyl 2-(4-(4-chlorophenyl)-2,3,9-trimethyl-6H-thieno[3,2-f][1,2,4]triazolo[4,3-a][1,4]diazepin-6-yl)acetate]
IC50 (primary AMLs): < 500 nM
disease progression (bioluminescent imaging) [1, 11]: marked delay in disease progression
survival [1, 11]: significantly extended survival
activity in established disease ([1]; established MLL-AF9/NrasG12D leukemia, 50 or 100 mg/kg/d): single-agent activity in the setting of established disease
half-life ([2]; in rodents): about one
effect on Myc levels (Myc [3]): minimal effects
time to downregulation of Myc mRNA levels (Myc [4]; 250 nM JQ1, MLL-AF9/Nras^G12D leukemia cells): ≤ 60 min
Myc mRNA and protein levels (Myc [4]; mouse MLL-AF9/Nras^G12D leukemia cells): dramatic reduction in Myc mRNA levels and Myc protein levels
focal Brd4 occupancy ~2 kilobases upstream of the Myc promoter (Brd4): eliminated
sensitivity to JQ1 [5]: highly sensitive
cell morphology (differentiation) [6]: macrophage-like appearance
activity in established disease [7]: single-agent anti-leukemia activity
proliferation sensitivity [8]: strikingly sensitive to sub-micromolar JQ1 concentrations
expression of Hoxa7, Hoxa9, or Meis1 (Hoxa7, Hoxa9, Meis1): does not influence expression
sensitivity to the compound [9]: minimal sensitivity
impact on normal hematopoiesis ([10]; 50 or 100 mg/kg/d intraperitoneal for 20 days): little if any impact on normal hematopoiesis; also recorded: minimal impact on normal hematopoiesis
H&E histopathology of sternal bone marrow ([10]; daily intraperitoneal 50 mg/kg or 100 mg/kg for 20 days): normal cellularity and normal mixed hematopoiesis
tolerability ([10]; mice): well-tolerated
IC50 (AML cell lines): < 500 nM
cell-cycle arrest and apoptosis (AML lines): universally triggered cell-cycle arrest and apoptosis

Cc1sc2c(c1C)C(c1ccc(Cl)cc1)=N[C@@H](CC(=O)OC(C)(C)C)c1nnc(C)n1-2 [(+)-JQ1, (S)-tert-Butyl 2-(4-(4-chlorophenyl)-2,3,9-trimethyl-6H-thieno[3,2-f][1,2,4]triazolo[4,3-a][1,4]diazepin-6-yl)acetate]
time with plasma concentration above the biologically active concentration observed in vitro (100 nM) ([2]; 50 mg/kg intraperitoneal, by extrapolation): more than 10 hours
Cmax ([2]; mouse, plasma, ip, single intraperitoneal injection 50 mg/kg, adult C1 male mice, read-out: peak plasma concentration (Cmax)): > 20 µM
AUC ([2]; mouse, plasma, ip, single intraperitoneal injection 50 mg/kg, adult C1 male mice, read-out: total drug exposure (AUC)): > 20000 ng·h/mL
